Results: patent publication US6436416B1, “Cosmetic skin conditioning compositions containing high performing retinyl esters” (Unilever Home & Personal Care USA, division of Conopco, Inc., priority 2000, dated 2002)

Experiments:
Procollagen I = Procollagen I assay; assay type: cell-based, human; settings: fibroblasts, control at 100%
Description: Collagen is a predominant skin protein. Its synthesis decreases with aging or photodamage. The degradation or destruction of collagen […] the tensile strength of the skin causing wrinkles and laxity. Many studies involving human subjects have shown that collagen type I is decreased with increasing severity of photodamage (See Kligman, A., JAMA, (1969), 210, pp. 2377-2380; Lavker, R., J. Inv Derm., (1979), 73, 79-66; Smith J. et al., J. lnv. Derm., (1962), 39, pp. 347-350; and Shuster, S. et al., Br. J. Dermatol., (1975), 93, pp. 639-643); and some correlation in the histology of wrinkles and reduction in collagen levels in the sun-exposed skin has been reported. See Chen, S.; Kiss, I., J. Inv. Derm., (1992), 98. pp. 248-254. Voorhees and colleagues have supported these findings by showing the restoration of collagen type I in photo-damaged human skin by a topical treatment with tretinoin. See Christopher, E., et al., The New Eng. Jou. of Medicine (1993), 329, pp. 530-535. Procollagen I is a precursor of collagen. Increased production of procollagen I in response to a test compound application is a marker of an increased collagen level.
Seed passage 3 (P3) fibroblasts in 6-well tissue culture treated dishes at a density of ˜10,000 cells/well.
Culture cells until ˜70% confluent in high glucose Dulbecco's Modified Eagles Medium (DMEM).
When cells are ˜70% confluent, replace with fresh medium, dose with actives and continue culturing until cells are 100% confluent.
Remove media and store at 4° C.
Dilute 20 μl conditioned (treated) media in 200 μl unconditioned DMEM.
Soak nitrocellulose membrane and 3 sheets of filter paper in 1×TBS (tris buffered saline, pH=7.3).
Set up Bio-Rad slot blot apparatus with filter paper on bottom, nitrocellulose membrane on top. Add 100 μl TBS/well. Vacuum dry.
Remove membrane from apparatus and place in blocking solution (5% milk powder in phosphate buffered saline (PBS)) for 1 hr at room temperature or overnight at 4° C.
Primary antibody-Remove membrane from blocking solution and incubate for 1.5 hours at room temperature or overnight at 4° C. with 1.5 ml rat anti-human procollagen amino-terminal antibody (Chemicon MAB1912) 1:100 in TBS with 0.1% bovine serum albumin (BSA).
Remove membrane, was 3×(10 minutes/wash) in TBS/0.1% tween 20.
Secondary antibody-incubate for 1 hour at room temperature or overnight at 4° C. in 2 ml 1:1000 biotinylated anti-rat peroxidase conjugated antibody (Vector Labs).
Remove membrane from secondary antibody and was 3×(10 minutes/wash) in TBS/0.1% tween 20.
Preincubate 3 ml PBS with 30 μl each of solutions A and B from Vectastain kit for 30 minutes. […]
Scan using a laser densitometer and quantified as % over control (with control at 100%).

[1] = tested on: CRABP-2 expression of pig skin epidermis; assay: CRABP-2 assay; assay type: cell-based; settings: topical dose 5 μl in ethanol vehicle, four days, control as 100%
Description: Within the cells, retinol and retinoic acid are bound to specific cellular binding proteins. Two of the major proteins are CRABP-1 and CRABP-2 (Roos et al., Pharmacological reviews: 50, 315-333, 1998). These proteins regulate the intracellular concentration of retinoids by acting as either storage or shuttle proteins in retinoid metabolism. The levels of CRABP protein are regulated by the amount of retinoic acid within the cells. Higher cellular levels of retinoids increase the expression of CRABP-2. Therefore, the amount of this protein in the cells is a measure of the retinoid activity of the cells. Skin cells contain high levels of CRABP-2 both in the epidermis and the dermis. CRABP-2 response to retinoid administration in is used as a reproducible measure of retinoid bioactivity that predict human skin responses (Elder et al., J. Invest. Dermatol., 106: 517-521, 1996). Increase in CRABP-2 is also associated with increased epidermal differentiation, and dermal retinoid action. Therefore, in these studies we used CRABP-2 expression of pig skin epidermis as a measure of retinoid activity leading to increased epidermal differentiation (skin conditioning and dry skin benefit) and dermal collagen and extracellular matrix synthesis (antiaging, anti wrinkling benefits).
Pig skin was received, scrubbed with Vionex detergent, and dermatomed at a thickness of 0.058 cm and allowed to wash in preliminary medium on a shaker for an hour with three solution changes.
7 mm punches were taken and allowed to sit in final medium overnight. The next day, the medium was refreshed with final medium 1 mL per well. One day later, the plates received fresh final medium,and topically dosed with 5 μl of the active(s) in an ethanol vehicle.
After four days, the biopsies will be removed from the plates, washed with PBS in a concial tube, and frozen at −80° C. for future use.
After thawing, the epidermis was separated and boiled in urea and sample buffer, after which protein quantitation was possible.
16% 15 lane acrylamide gels were loaded ewith the appropriate samples and run until all the proteins were separated based upon their molecular weight.
The gels were transferred onto PVDF membranes at 25 constant Volts for 2.5 hours.
The membranes were blocked with 5% milk in TBST (Tween 0.05%) for one hour at room temperature.
Primary Ab exposure 1:1,000 in 1% milk TBS soln for one hour, followed by six washes with TBST over a period of one hour. […]
The bands in the film were quantified by densitometric scanning, the data from triplicate samples were calculated as % of control and expressed in the following tables as % increase over control (with control as 100%).

CCCCCCCCCCCCCCCC(=O)OC/C=C(C)/C=C/C=C(C)/C=C/C1=C(C)CCCC1(C)C [Retinyl Palmitate, reference compound]
% over control (Procollagen I; Experiment 3, concentration 10^−7 M, not significant): 24 % over control
% over control ([1]; concentration 10^−3 M): 444 % over control

CCCCCCCCCCC/C=C/CCCCC(=O)OC/C=C(C)/C=C/C=C(C)/C=C/C1=C(C)CCCC1(C)C [Retinyl petroselinate, Retinyl Petroselinate]
% over control (Procollagen I; Experiment 1, concentration 10^−6 M, p < 0.05): 110 % over control
% over control ([1]; concentration 10^−3 M): 522 % over control

CCCCC/C=C/CCCCCCCCCCC(=O)OC/C=C(C)/C=C/C=C(C)/C=C/C1=C(C)CCCC1(C)C [Retinyl cis-12-Octadecenoate, Retinyl-cis12-Octadecenoate]
% over control (Procollagen I; Experiment 2, concentration 10^−6 M, p < 0.05): 28 % over control
% over control ([1]; concentration 10^−4 M): 993 % over control

CCCCC/C=C/C/C=C/C/C=C/CCCCC(=O)OC/C=C(C)/C=C/C=C(C)/C=C/C1=C(C)CCCC1(C)C [Gamma-retinyl linolenate, Retinyl-cis-6,9,12-Octadecatrienoate]
% over control (Procollagen I; Experiment 1, concentration 10^−5 M, p < 0.05): 225 % over control
% over control ([1]; concentration 10^−4 M): 882 % over control
